# Where “and” joins values, the source holds several entries; their conditions need not be identical. Identical values can stand only once. Results filed as inconclusive are left out.
# Test system: MX-1 breast xenograft, nude mice, tumor weight T/C
# Test: NCI In Vivo Anticancer Drug Screen. Data for tumor model Human Mammary Carcinoma MX-1 Xenograft (intrarenal inoculation) in NU/NU Swiss (nude) mice
# Conditions: endpoint: mean tumor weight change, higher = larger tumour
# How it was run: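 Activity is given as a ratio, with each measurement in the compound-treated arm divided by the matching measurement in vehicle-dosed controls. Tumour size or survival serves as the measured parameter.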
# [1] = dose: 300.0 mg/kg/injection, schedule: Q04DX003 (sc), vehicle: saline with Tween-80
# [2] = dose: 600.0 mg/kg/injection, schedule: Q04DX003 (sc), vehicle: saline with Tween-80
# [3] = dose: 1200.0 mg/kg/injection, schedule: Q04DX003 (sc), vehicle: saline with Tween-80
# [4] = dose: 2400.0 mg/kg/injection, schedule: Q04DX003 (sc), vehicle: saline with Tween-80
# [5] = dose: 150.0 mg/kg/injection, schedule: Q04DX003 (sc), vehicle: saline with Tween-80
smiles,measurement,setting,value
CC1(C)CC2(C)OC2C2(C1)N=NC(=Nc1ccccc1)O2 (stereo not drawn),T/C,[1],79 % of control
same,T/C,[2],81 % of control
same,T/C,[3],88 % of control
same,T/C,[4],81 % of control
CC(Cc1ccc(O)cc1)NCC(O)c1ccc(O)c(O)c1 (stereo not drawn),T/C,"dose: 75.0 mg/kg/injection, schedule: Q04DX003 (sc), vehicle: saline with Tween-80",91 % of control
same,T/C,[5],96 % of control
same,T/C,[2],67 % of control
same,T/C,[3],82 % of control
same,T/C,[4],45 % of control
Cc1ccc(S(=O)(=O)N/N=C/C(Br)=C(/Br)C(=O)O)cc1,T/C,"dose: 2.5 mg/kg/injection, schedule: Q04DX003 (sc), vehicle: saline",95 % of control
same,T/C,"dose: 5.0 mg/kg/injection, schedule: Q04DX003 (sc), vehicle: saline",100 % of control
same,T/C,"dose: 10.0 mg/kg/injection, schedule: Q04DX003 (sc), vehicle: saline",100 % of control
same,T/C,"dose: 20.0 mg/kg/injection, schedule: Q04DX003 (sc), vehicle: saline",78 % of control
same,T/C,"dose: 150.0 mg/kg/injection, schedule: Q04DX003 (sc), vehicle: Klucel (hydroxypropylcellulose) (HPC)",80 % of control
same,T/C,"dose: 300.0 mg/kg/injection, schedule: Q04DX003 (sc), vehicle: Klucel (hydroxypropylcellulose) (HPC)",71 % of control
same,T/C,"dose: 600.0 mg/kg/injection, schedule: Q04DX003 (sc), vehicle: Klucel (hydroxypropylcellulose) (HPC)",26 % of control
NC(=S)N/N=C/c1ccc(OC(=O)COc2ccc(Cl)cc2)cn1,T/C,[1],112 % of control
same,T/C,[2],88 % of control
same,T/C,[3],92 % of control
Cc1cc(NCCCCCCCNc2cc(C)nc3cc(N)ccc23)c2ccc(N)cc2n1,T/C,"dose: 12.5 mg/kg/injection, schedule: Q01DX010 (sc), vehicle: saline with Tween-80",53 % of control and 56 % of control and 72 % of control
NC(Cc1ccc(N(CCCl)CCCl)cc1)C(=O)O (stereo not drawn),T/C,"dose: 10.0 mg/kg/injection, schedule: Q04DX003 (sc), vehicle: Klucel (hydroxypropylcellulose) (HPC)",-99 % of control
same,T/C,"dose: 20.0 mg/kg/injection, schedule: Q04DX003 (sc), vehicle: Klucel (hydroxypropylcellulose) (HPC)",-100 % of control
same,T/C,"dose: 40.0 mg/kg/injection, schedule: Q04DX003 (sc), vehicle: Klucel (hydroxypropylcellulose) (HPC)",-99 % of control
COP12(OCCO1)SC(C(F)(F)F)=C(C(F)(F)F)S2,T/C,"dose: 125.0 mg/kg/injection, schedule: Q04DX003 (sc), vehicle: saline with Tween-80",119 % of control
same,T/C,"dose: 250.0 mg/kg/injection, schedule: Q04DX003 (sc), vehicle: saline with Tween-80",92 % of control
C1OC1C1CO1 (stereo not drawn),T/C,"dose: 12.5 mg/kg/injection, schedule: Q01DX010 (sc), vehicle: saline",4 % of control and 28 % of control
same,T/C,"dose: 12.5 mg/kg/injection, schedule: Q04DX003 (sc), vehicle: suspension in saline",63 % of control and 74 % of control
same,T/C,"dose: 25.0 mg/kg/injection, schedule: Q01DX010 (sc), vehicle: saline",-53 % of control and -47 % of control
same,T/C,"dose: 25.0 mg/kg/injection, schedule: Q04DX003 (sc), vehicle: suspension in saline",37 % of control and 44 % of control
same,T/C,"dose: 50.0 mg/kg/injection, schedule: Q01DX010 (sc), vehicle: saline",-90 % of control and -85 % of control
same,T/C,"dose: 50.0 mg/kg/injection, schedule: Q04DX003 (sc), vehicle: suspension in saline",1 % of control and 4 % of control
CN(C)N=Nc1ccccc1,T/C,"dose: 100.0 mg/kg/injection, schedule: Q04DX003 (sc), vehicle: Klucel (hydroxypropylcellulose) (HPC)",36 % of control
OCCN1CCN(CC/C=C2/c3ccccc3Sc3ccc(C(F)(F)F)cc32)CC1,T/C,"dose: 30.0 mg/kg/injection, schedule: Q04DX003 (sc), vehicle: saline",65 % of control
same,T/C,"dose: 60.0 mg/kg/injection, schedule: Q04DX003 (sc), vehicle: saline",43 % of control
same,T/C,"dose: 120.0 mg/kg/injection, schedule: Q04DX003 (sc), vehicle: saline",29 % of control and 43 % of control
same,T/C,"dose: 240.0 mg/kg/injection, schedule: Q04DX003 (sc), vehicle: saline",17 % of control and 21 % of control
CCOC(=O)c1cn(C)c2c1C(O)=C(C(=O)OC)CC(=O)N2,T/C,[5],95 % of control
same,T/C,[1],80 % of control
same,T/C,[2],85 % of control
same,T/C,[3],90 % of control
Cc1cc2nc3c(=O)[nH]c(=O)nc-3n(CC(O)C(O)C(O)C(O)CO)c2cc1C (stereo not drawn),T/C,[1],93 % of control
same,T/C,[2],89 % of control
same,T/C,[3],89 % of control
same,T/C,[4],91 % of control
Nc1nc(-c2ccccc2)c(Br)c(=O)[nH]1,T/C,[1],96 % of control
same,T/C,[2],93 % of control
same,T/C,[3],109 % of control
same,T/C,[4],65 % of control

# — PubChem BioAssay AID296 (DTP/NCI, 2004)
